From the supplement of paper PMC4862054

Key:
Conditions in all cases: incubation time: 72 h
[1] = test system: HCC1937; assay: normalised response (% of control), CellTiter-Glo; higher = more viable cells (100 = DMSO, 0 = benzethonium chloride kill control)
In short: (§1)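 Breast cancer cell lines, seeded at 20 µl suspension per well, were incubated for 72 h in 384-well plates containing compound at 5 concentrations. These concentrations rose in 10-fold steps over a 10,000-fold range set for each compound. CellTox Green fluorescence (485/520 nm) was read, then CellTiter-Glo luminescence after 10 min at room temperature, and each plate was normalised to 0.1 % DMSO (100) and a positive kill control (0). Values are normalised signals, each at one concentration.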

[2] = test system: MCF-10A; assay: as above
In short: as §1

[3] = test system: BT-549; assay: as above
In short: as §1

[4] = test system: MDA-MB-453; assay: as above
In short: as §1

[5] = test system: HDQ-P1; assay: as above
In short: as §1

[6] = test system: DU-4475; assay: as above
In short: as §1

[7] = test system: MDA-MB-436; assay: as above
In short: as §1

[8] = test system: BT-474; assay: as above
In short: as §1

[9] = test system: MDA-MB-231; assay: as above
In short: as §1

[10] = test system: CAL-120; assay: as above
In short: as §1

[11] = test system: HCC1143; assay: as above
In short: as §1

[12] = test system: CAL-51; assay: as above
In short: as §1

[13] = test system: Hs578T; assay: as above
In short: as §1

[14] = test system: MDA-MB-468; assay: as above
In short: as §1

[15] = test system: CAL-85-1; assay: as above
In short: as §1

[16] = test system: SK-BR-3; assay: as above
In short: as §1

[17] = test system: HCC1599; assay: as above
In short: as §1

[18] = test system: CAL-148; assay: as above
In short: as §1

[19] = test system: MFM-223; assay: as above
In short: as §1

[20] = test system: HCC1937; assay: normalised response (% of control), CellTox Green; higher = less cell death (100 = DMSO, 0 = benzethonium chloride kill control)
In short: as §1

[21] = test system: MCF-10A; assay: as above
In short: as §1

[22] = test system: BT-549; assay: as above
In short: as §1

[23] = test system: MDA-MB-453; assay: as above
In short: as §1

[24] = test system: HDQ-P1; assay: as above
In short: as §1

[25] = test system: DU-4475; assay: as above
In short: as §1

[26] = test system: MDA-MB-436; assay: as above
In short: as §1

[27] = test system: BT-474; assay: as above
In short: as §1

[28] = test system: MDA-MB-231; assay: as above
In short: as §1

[29] = test system: CAL-120; assay: as above
In short: as §1

[30] = test system: HCC1143; assay: as above
In short: as §1

[31] = test system: CAL-51; assay: as above
In short: as §1

[32] = test system: Hs578T; assay: as above
In short: as §1

[33] = test system: MDA-MB-468; assay: as above
In short: as §1

[34] = test system: CAL-85-1; assay: as above
In short: as §1

[35] = test system: HCC1599; assay: as above
In short: as §1

[36] = test system: CAL-148; assay: as above
In short: as §1

[37] = test system: MFM-223; assay: as above
In short: as §1

Row | SMILES | normalised response [1] [%] | normalised response [2] [%] | normalised response [3] [%] | normalised response [4] [%] | normalised response [5] [%] | normalised response [6] [%] | normalised response [7] [%] | normalised response [8] [%] | normalised response [9] [%] | normalised response [10] [%] | normalised response [11] [%] | normalised response [12] [%] | normalised response [13] [%] | normalised response [14] [%] | normalised response [15] [%] | normalised response [16] [%] | normalised response [17] [%] | normalised response [18] [%] | normalised response [19] [%] | normalised response [20] [%] | normalised response [21] [%] | normalised response [22] [%] | normalised response [23] [%] | normalised response [24] [%] | normalised response [25] [%] | normalised response [26] [%] | normalised response [27] [%] | normalised response [28] [%] | normalised response [29] [%] | normalised response [30] [%] | normalised response [31] [%] | normalised response [32] [%] | normalised response [33] [%] | normalised response [34] [%] | normalised response [35] [%] | normalised response [36] [%] | normalised response [37] [%]
1 | CO[C@H]1C[C@@H]2CC[C@@H](C)[C@@](O)(O2)C(=O)C(=O)N2CCCC[C@H]2C(=O)O[C@H]([C@H](C)C[C@@H]2CC[C@@H](OCCO)[C@H](OC)C2)CC(=O)[C@H](C)/C=C(\C)[C@@H](O)[C@@H](OC)C(=O)[C@H](C)C[C@H](C)/C=C/C=C/C=C/1C [Everolimus] (1 nM) | 75.2 | 91.6 | 63.6 | 82.7 | 91.9 | 83 | 83.7 | 91.9 | 82.9 | 77.8 | 72.4 | 72.1 | 70.6 | 57.1 | 69.3 | 65.9 | 98.2 | 72 | 71.6 | 99.9 | 80 | 79.8 | 103 | 83.1 | 96.3 | 98.3 | 96.7 | 105 | 106 | 79.1 | 94.4 | 67.1 | 121 | 109 | 89.6 | 85.8 | 102
2 | CN(C)C[C@@H]1CCn2cc(c3ccccc32)C2=C(C(=O)NC2=O)c2cn(c3ccccc23)CCO1 [Ruboxistaurin] (100 nM) | 95.1 | 89.3 | 102 | 105 | 99.3 | 95.5 | 98 | 99.5 | 96.1 | 92.7 | 94.7 | 105 | 98 | 93.8 | 96.6 | 93 | 105 | 94.5 | 99.8 | 90 | 95.6 | 109 | 92.7 | 102 | 99.3 | 79.8 | 98.9 | 112 | 103 | 99.5 | 101 | 66.2 | 141 | 109 | 96.2 | 102 | 103
3 | C/C(=C\c1csc(C)n1)[C@@H]1C[C@@H]2O[C@]2(C)CCC[C@H](C)[C@H](O)[C@@H](C)C(=O)C(C)(C)[C@@H](O)CC(=O)O1 [Patupilone] (10 nM) | 100 | 89.1 | 55.1 | 101 | 98.7 | 104 | 79.9 | 94.6 | 97.9 | 105 | 77.5 | 56 | 90.9 | 53.4 | 80.2 | 99.7 | 114 | 105 | 107 | 99.4 | 103 | 97.3 | 97.9 | 110 | 99.5 | 76.8 | 95.7 | 92.9 | 93.6 | 108 | 29.3 | 84 | 34.5 | 79.5 | 106 | 102 | 96.3
4 | O=C1NC(=O)[C@@H](c2cn3c4c(cccc24)CCC3)[C@@H]1c1c[nH]c2ccccc12 [Tivantinib] (10 nM) | 97.6 | 103 | 98.3 | 85 | 100 | 104 | 102 | 104 | 103 | 96.3 | 97.8 | 106 | 92.6 | 99.6 | 99.2 | 99.4 | 105 | 98.4 | 99.6 | 106 | 84.5 | 104 | 106 | 109 | 100 | 90.1 | 97.8 | 105 | 103 | 105 | 102 | 110 | 131 | 102 | 103 | 78.8 | 98.9
